Series [1] concerns the target SSTR1 (Homo sapiens, UniProt P30872). The conditions noted are these: read-out: Octreoscan Ki; cited from earlier work.
Series [2] concerns the target SSTR5 (Homo sapiens, UniProt P35346). The conditions noted are these: read-out: Octreoscan Ki; cited from earlier work.
Series [3] addresses SSTR4 (Homo sapiens, UniProt P31391). The settings on record: read-out: Octreoscan Ki; cited from earlier work.
The target in series [4] is SSTR2 (Homo sapiens, UniProt P30874). On the set-up: expressed in transfected cells. The settings on record: read-out: Octreoscan Ki; cited from earlier work.
In series [5] the target is SSTR3 (Homo sapiens, UniProt P32745). The settings on record: read-out: Octreoscan Ki; cited from earlier work.
Series [6] deals with NCI-H524 human small cell lung cancer cells. Description: cells. It counts as cell-based. On the procedure:
Conjugates of the present invention were assessed in an in vitro assay evaluating inhibition of cell proliferation. NCI-H524 (ATCC) human small cell lung cancer cells were plated in 96 well, V-bottomed plates (Costar) at a concentration of 5,000 cells/well. 24 hours later, cells were treated with either conjugate for 2 hours and further incubated 70 hours, or for octreotide competition experiments, treated with 100 μM octreotide for 30 min, and then treated with conjugate for 2 hours, and further incubated for 70 hours. Conjugate starting dose was 20 μM and three fold serial dilutions were done for a total of ten points. After 2 hours of treatment, cells were spun down, the drug containing media was removed, and fresh complete medium was added and used to resuspend the cells, which were spun again. After removal of the wash media, the cells were resuspended in complete medium, and then transferred into white walled, flat bottomed 96 well plates. […] Proliferation was measured using CellTiter Glo reagent using the standard protocol (Promega) and a Glomax multi+ detection system (Promega). Percent proliferation inhibition was calculated using the following formula: % inhibition=(control−treatment)/control*100. Control is defined as vehicle alone. IC50 curves were generated using the nonlinear regression analysis (four parameter) with GraphPad Prism 6.

Series [7] has as its system NCI-H69 SCLC tumors. Description: H69 tumor DM-1 levels by LC/MS-MS. It counts as in vivo, mice. The conditions noted are these: 1 mg/kg; 24 hour time point. On the procedure: (§1) To examine the ability of conjugates of the present invention to accumulate in tumors, a murine cancer model was used. All mice were treated in accordance with the OLAW Public Health Service Policy on Human Care and Use of Laboratory Animals and the ILAR Guide for the Care and Use of Laboratory Animals. All in vivo studies were conducted following the protocols approved by the Blend Therapeutics Institutional Animal Care and Use Committee. Animals were inoculated with 2.5×10^6 NCI-H69 SCLC (small cell lung cancer) cells in 1:1 RPMI 1640 (Invitrogen, Carlsbad, Calif.)/Matrigel® (BD Biosciences, San Jose, Calif.) via subcutaneous injection to the right flank. Tumors were allowed to reach an approximate volume of ˜500 mm3. Animals were then randomized into treatment groups of 3 animals per time point and were dosed at 1 mg/kg (10% propylene glycol in water for injection for free conjugates, or 10% sucrose for nanoparticles), or 0.4 mg/kg for DM-1 (10% propylene glycol in water for injection). The 24 hour time point was used as a benchmark across conjugates.
(§2) Tumor DM-1 levels were determined by liquid chromatography mass spectrometry (LC/MS-MS). Four volumes of 5 mM 6-maleimidohexanoic acid to 1 part tumor v/w was added and homogenized for about 10-15 seconds with a handheld homogenizer. 10 μL of 500 mM Tris(2-carboxyethyl)phosphine was added to 100 uL of tumor homogenate, mixed well and incubated at room temperature for about 5-15 min. 200-300 uL of acetonitrile was used to precipitate proteins in tumor homogenate, samples were centrifuged for 5 min, and supernatant was injected onto LC/MS-MS system for DM-1 analysis.

Series [8] can be described thus: H69 tumor DM-1 levels by LC/MS-MS. It counts as in vivo, mice. The settings on record: mouse, tumor (NCI-H69 SCLC xenograft); 0.4 mg/kg for DM-1; 24 hour time point. The procedure:
as §1, §2

A short description of series [9]: Single dose exploratory toxicity study. It counts as in vivo, SD female rat. The settings on record: 0.4 mg/kg. On the procedure:
Single dose exploratory toxicity studies in SD female rat (dose 0.5 mg/kg to 1.5 mg/kg) for 7-10 days were carried out. Clinical observations, body weight, clinical blood chemistry, histopathology, and complete blood counts were assessed. In the 10-day study, DM1 (0.4 mg/kg) was compared to Conjugate 57 at an equivalent dose of DM1 (1.0 mg/kg of conjugate) and at a 50% higher dose (1.5 mg/kg of conjugate).
Decreased white blood cell (WBC) count is a known dose limiting toxicity of DM1. WBC count was tracked in all groups.
Liver toxicity is also a know dose limiting toxicity of DM1. Alanine transaminase (ALT) and aspartate aminotransferase (AST) are markers of liver toxicity and were measured in all groups.

Read-outs that look alike come from different tables or passages of the source.

Sequence of SSTR1 (P30872 whole entry): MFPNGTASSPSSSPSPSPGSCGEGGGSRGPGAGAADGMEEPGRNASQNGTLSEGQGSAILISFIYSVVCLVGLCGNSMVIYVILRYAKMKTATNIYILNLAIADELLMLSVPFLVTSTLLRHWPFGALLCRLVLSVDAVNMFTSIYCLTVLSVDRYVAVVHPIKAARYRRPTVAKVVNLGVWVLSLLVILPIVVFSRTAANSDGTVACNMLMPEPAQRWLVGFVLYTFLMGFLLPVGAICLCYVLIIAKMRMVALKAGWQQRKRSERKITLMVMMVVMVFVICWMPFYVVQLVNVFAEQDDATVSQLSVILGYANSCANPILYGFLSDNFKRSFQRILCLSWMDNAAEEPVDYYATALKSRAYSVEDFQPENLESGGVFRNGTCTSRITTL
Sequence of SSTR4 (P31391 whole entry): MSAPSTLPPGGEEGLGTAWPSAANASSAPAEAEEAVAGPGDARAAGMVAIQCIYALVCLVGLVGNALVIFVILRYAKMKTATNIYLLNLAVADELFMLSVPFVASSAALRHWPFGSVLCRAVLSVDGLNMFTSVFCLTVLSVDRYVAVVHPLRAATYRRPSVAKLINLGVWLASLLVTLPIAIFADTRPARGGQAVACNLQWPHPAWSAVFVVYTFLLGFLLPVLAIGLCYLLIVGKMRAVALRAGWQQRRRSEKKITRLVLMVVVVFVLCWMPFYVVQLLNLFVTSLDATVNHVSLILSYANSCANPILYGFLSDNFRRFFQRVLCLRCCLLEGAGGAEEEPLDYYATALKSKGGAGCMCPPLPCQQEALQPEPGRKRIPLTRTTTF
Sequence of SSTR2 (P30874 whole entry): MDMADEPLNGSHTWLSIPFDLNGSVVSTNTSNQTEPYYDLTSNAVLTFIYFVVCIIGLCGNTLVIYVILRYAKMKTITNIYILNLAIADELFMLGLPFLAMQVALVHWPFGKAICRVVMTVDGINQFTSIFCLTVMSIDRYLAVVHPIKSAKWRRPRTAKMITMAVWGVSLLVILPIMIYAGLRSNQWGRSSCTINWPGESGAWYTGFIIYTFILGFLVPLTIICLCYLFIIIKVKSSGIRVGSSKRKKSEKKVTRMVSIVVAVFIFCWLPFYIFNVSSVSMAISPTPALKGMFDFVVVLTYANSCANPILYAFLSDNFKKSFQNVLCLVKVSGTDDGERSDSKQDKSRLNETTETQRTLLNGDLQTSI
Sequence of SSTR5 (P35346 whole entry): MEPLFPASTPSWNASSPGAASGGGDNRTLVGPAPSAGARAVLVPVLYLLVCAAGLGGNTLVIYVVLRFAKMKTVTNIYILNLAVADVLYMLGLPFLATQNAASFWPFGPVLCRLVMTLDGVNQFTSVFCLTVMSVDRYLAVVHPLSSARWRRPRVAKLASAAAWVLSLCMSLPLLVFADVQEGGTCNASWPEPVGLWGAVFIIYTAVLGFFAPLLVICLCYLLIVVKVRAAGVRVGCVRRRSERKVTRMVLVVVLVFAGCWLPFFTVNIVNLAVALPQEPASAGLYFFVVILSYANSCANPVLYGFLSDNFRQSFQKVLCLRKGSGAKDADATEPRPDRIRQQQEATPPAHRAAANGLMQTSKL
Sequence of SSTR3 (P32745 whole entry): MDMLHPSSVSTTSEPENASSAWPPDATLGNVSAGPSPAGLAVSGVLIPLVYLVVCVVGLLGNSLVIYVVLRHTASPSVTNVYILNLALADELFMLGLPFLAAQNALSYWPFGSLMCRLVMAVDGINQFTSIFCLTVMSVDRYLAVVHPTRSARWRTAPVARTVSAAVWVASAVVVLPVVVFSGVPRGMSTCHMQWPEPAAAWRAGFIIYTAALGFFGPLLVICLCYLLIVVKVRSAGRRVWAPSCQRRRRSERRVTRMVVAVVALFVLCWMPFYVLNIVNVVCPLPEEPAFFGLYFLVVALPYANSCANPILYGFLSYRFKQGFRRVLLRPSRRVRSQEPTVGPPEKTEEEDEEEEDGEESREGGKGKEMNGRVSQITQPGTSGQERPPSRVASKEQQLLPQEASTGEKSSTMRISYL

The Ki is a measure of affinity in units of concentration, obtained from inhibition or displacement. Consider Indium-111 pentetreotide [Octreoscan], for which the Ki in series [1] was more than 10000 nM; in [2] it was 237 nM; in series [3] it was more than 1000 nM; in series [4], 22 nM; in series [5] it was 182 nM.

In general, IC50 refers to the concentration needed to halve the response being measured. As to `COc1cc2cc(c1Cl)N(C)C(=O)C[C@H](OC(=O)C(C)N(C)C(=O)CCSSCCC(=O)NCCCOCCOCCOCCCNC(=O)CC[C@H]1C(=O)N[C@@H](Cc3ccc(O)cc3)C(=O)N[C@H](Cc3c[nH]c4ccccc34)C(=O)N[C@@H](CCCCN)C(=O)N[C@@H]([C@@H](C)O)C(=O)N[C@@H](Cc3ccccc3)C(=O)N1C)[C@]1(C)O[C@H]1[C@H](C)[C@@H]1C[C@@](O)(NC(=O)O1)[C@H](OC)/C=C/C=C(\C)C2` (stereo partly drawn) [Conjugate 18], the IC50 came to 1480 nM in [6] (2 hours treatment, 70 hours further incubation, read-out: H524 IC50) and 2160 nM in series [6] (read-out: H524 IC50+ 100 uM octreotide, 100 μM octreotide for 30 min before conjugate). In addition, the “H69 tumor DM-1 levels” value in [7] was 86.3 nM.

Consider `COc1cc2cc(c1Cl)N(C)C(=O)C[C@H](OC(=O)[C@H](C)N(C)C(=O)CCS)C1(C)O[C@H]1[C@H](C)[C@@H]1C[C@@](O)(NC(=O)O1)[C@H](OC)/C=C/C=C(\C)C2` (stereo partly drawn) [DM-1, mertansine, reference compound], for which the IC50 in series [6] (Homo sapiens, NCI-H524, read-out: H524 IC50 (nM)) turned out to be 90 nM. Besides, the IC50 in series [6] (Homo sapiens, NCI-H524, read-out: H524 IC50+ 100 uM octreotide (nM)) worked out at 90 nM. Besides, the concentration at 24 h in [8] was determined as 31.6 nM. Moreover, in series [9], the “AST and ALT” value was “dramatic increases in AST and ALT at day 5”; the “Day 5 weight change (%)” value is on record as −18%; the WBC count entry is recorded as “dramatic decreases in WBC count”; the clinical outcome was “had to be euthanized on day 5 because they were moribund”.

In the case of `COc1cc2cc(c1Cl)N(C)C(=O)C[C@H](OC(=O)[C@H](C)N(C)C(=O)CCSSCCNC(=O)[C@@H](NC(=O)[C@@H]1CSSC[C@H](NC(=O)[C@H](N)Cc3ccccc3)C(=O)N[C@@H](Cc3ccc(O)cc3)C(=O)N[C@H](Cc3c[nH]c4ccccc34)C(=O)N[C@@H](CCCCN)C(=O)N[C@@H]([C@@H](C)O)C(=O)N1)[C@@H](C)O)[C@]1(C)O[C@H]1[C@H](C)[C@@H]1C[C@@](O)(NC(=O)O1)[C@H](OC)/C=C/C=C(\C)C2` [Conjugate 35], the “H69 tumor DM-1 levels” value in series [7] was found to be 23.2 nM.

On to `COc1cc2cc(c1Cl)N(C)C(=O)C[C@H](OC(=O)[C@H](C)N(C)C(=O)CCSSCCCN[C@H](Cc1ccccc1)C(=O)N[C@H]1CSSC[C@@H](C(=O)N[C@H](CO)[C@@H](C)O)NC(=O)[C@H]([C@@H](C)O)NC(=O)[C@H](CCCCN)NC(=O)[C@@H](Cc3c[nH]c4ccccc34)NC(=O)[C@H](Cc3ccccc3)NC1=O)[C@]1(C)O[C@H]1[C@H](C)[C@@H]1C[C@@](O)(NC(=O)O1)[C@H](OC)/C=C/C=C(\C)C2` [Conjugate 76], for which the “H69 tumor DM-1 levels” value in series [7] is given as 62.2 nM.

Take `COc1cc2cc(c1Cl)N(C)C(=O)C[C@H](OC(=O)[C@H](C)N(C)C(=O)CCSSCCC(=O)NCCCC[C@H]1C(=O)N[C@@H](Cc3ccc(O)cc3)C(=O)N[C@H](Cc3c[nH]c4ccccc34)C(=O)N[C@@H](CCCCN)C(=O)N[C@@H]([C@@H](C)O)C(=O)N[C@@H](Cc3ccccc3)C(=O)N1C)[C@]1(C)O[C@H]1[C@H](C)[C@@H]1C[C@@](O)(NC(=O)O1)[C@H](OC)/C=C/C=C(\C)C2` [Conjugate 10]: the “H69 tumor DM-1 levels” value in series [7] is recorded as 72.1 nM.
